This is an account of results in patent US20250319063A1, “METHODS AND COMPOUNDS FOR RESTORING MUTANT P53 FUNCTION” (PMV PHARMACEUTICALS, INC., priority 2022, published 2025).

Entries after “also recorded” stand apart in the source; their conditions may differ. Read-outs that look alike come from different tables or passages of the source.

For data set [1], the system named is Prostate-Specific Antigen. Kind of data set: Prostate-Specific Antigen (PSA) assessment in CRPC patients. The settings on record: metastatic castration-resistant prostate cancer patient, 2,000 mg QD (Example 10). The class given is in vivo, human. The procedure:
Patient cohorts 1 through 3 were administered with 150 mg QD to 600 mg QD of Compound 1. Patient cohorts 4 through 7 were administered with 1150 mg QD to 1500 mg BID of Compound 1. The same methods of assessment (e.g., CT, MRI, bone scan) and the same technique were used at baseline and throughout the study to ensure comparability. Scans were performed immediately following bolus contrast administration using a standard volume of contrast, an identical contrast agent, and preferably the same scanner. Where appropriate (i.e., part of standard of care and clinically indicated), fluorodeoxyglucose-positron emission tomography (FDG PET) data were also obtained. In addition, patients with Castration-resistant prostate cancer (CRPC) had Prostate-Specific Antigen (PSA) assessments within 7 days of imaging assessments.

The nature of data set [2]: Pharmacokinetic analysis of patient plasma (LC/MS/MS, noncompartmental analysis). Format: in vivo. The settings on record: for half-life: human, plasma. An excerpt: Serial blood samples for PK assessments were collected from all patients, including adolescents. Serial blood samples from all patients were also collected for PDc assessment of response to Compound 1. Pre- and on-treatment tumor biopsies for PDc assessment were optional. The relationship between plasma Compound 1 concentrations and pharmacodynamic biomarkers of response were explored. When the MTD was established, this cohort was expanded up to 12 patients. At least one additional cohort at a total daily dose below the MTD and considered to be active were expanded up to 12 patients. These expanded cohorts provided additional information about the relationship between dose, safety/tolerability, and efficacy to inform the selection of RP2D. Data from Phase 1 are reviewed to assess the benefit-risk for each dose level when selecting RP2D. The RP2D is determined as the dose resulting in the best therapeutic window for Compound 1 based on the review of all available safety, PK, PDc, and preliminary efficacy data. The RP2D can be the same as the MTD or below the MTD.
Compound 1 concentration data were summarized by dose level and Study Day using nominal time points. Individual and mean concentrations versus nominal time plots were presented by dose level. Pharmacokinetic parameter values were derived by non-compartmental methods by a validated pharmacokinetic analysis program. Actual times were used for all formal analyses. PK parameters were summarized by dose level. Individual values were listed for each PK parameter (e.g., Cmax, Tmax, AUC0-T, AUCtau, Ctrough/Ctau, accumulation ratios) by dose level, and the following (non-model-based) descriptive statistics were provided: N (number of patients with non-missing data), arithmetic mean, standard deviation, arithmetic percent coefficient of variation (CV) (calculated as 100×standard deviation/arithmetic mean), median, minimum, maximum, geometric mean, and geometric percent CV (calculated as: […]
Plasma samples were analyzed for levels of Compound 1 via a validated LC/MS/MS method. The concentration data were analyzed using Phoenix version 8.2 via noncompartmental analysis.

With `CNC(=O)c1ccc(NCC#Cc2cc3c(N[C@@H]4CCN(C)C[C@@H]4F)cccc3n2CC(F)(F)F)c(OC)c1` [Compound 1, 4-((3-(4-(((3S,4R)-3-fluoro-1-methylpiperidin-4-yl)amino)-1-(2,2,2-trifluoroethyl)-1H-indol-2-yl)prop-2-yn-1-yl)amino)-3-methoxy-N-methylbenzamide], the “PSA response (decrease)” value in data set [1] is on record as greater than 50%. For the setting “Phase 1 dose escalation”, this molecule had a maximum tolerated dose of 1500 mg BID. Also, the daily dose tolerated (female, human, in vivo) is ≤ 2,500 mg. For the setting “human, in vivo”, the “Diarrhea (TRAE), patients” value amounted to 5 n; the “Most frequent treatment-related AEs (>15%)” value was “nausea, vomiting, AST/ALT increase, anemia, blood creatinine increase, and fatigue”; the “Vomiting (TRAE), patients” value worked out at 5 n; the daily dose tolerated is recorded as ≤ 2,000 mg. For the same molecule, the tolerance of treatment result (human, in vivo) was “overall good tolerance of treatment with mild nausea and elevated LFTs that resolved with steroids”. The Dose limiting toxicities entry (human, in vivo, 21 days) was “Grade 3 AST/APT increase and grade 3 acute kidney injury”. For the same molecule, in data set [2] (2,000 mg QD, 2,500 mg QD, and 1,500 mg BID dose groups), the Exposures entry was “Exposures were efficacious”. For the same molecule, in data set [2] (oral, patients, Day 15, read-out: Median half-life (converted)), the half-life was 19 h. The half-life in data set [2] (patients, oral QD or BID dosing, read-out: Half-lives) lay in the range of 10 to 34 h. Besides, the “dose proportionality of exposure” value in data set [2] (patients, Day 1 through D15) was “dose proportional increases in Cmax and AUC values; also recorded: linear PK over the therapeutic dose range”.
